Results: PubChem BioAssay (NCI)
Several values for one entry are separate records, joined by “and”; a condition that tells them apart may be missing. Equal values may be shown once.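 Briefly, cells in 96-well plates were exposed to five compound concentrations for 48 h, and endpoints were estimated by linear interpolation. Here, GI50 denotes the concentration required for 50% inhibition of growth. At the TGI there is no net growth.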

Tests used:
Assay in all cases: growth of human tumour cells (NCI), 48 h; in the data active = GI50 below about 0.43 µM; inactive = the rest
[1] = system: COLO 205 colon
[2] = system: MOLT-4 leukemia
[3] = system: NCI-H460 lung
[4] = system: LOX IMVI melanoma
[5] = system: DU-145 prostate
[6] = system: OVCAR-5 ovarian
[7] = system: MDA-MB-231 breast
[8] = system: SNB-19 CNS
[9] = system: SF-268 CNS
[10] = system: SW-620 colon
[11] = system: SF-295 CNS
[12] = system: NCI/ADR-RES ovarian
[13] = system: HCT-116 colon
[14] = system: UO-31 renal
[15] = system: HCC-2998 colon
[16] = system: SF-539 CNS
[17] = system: NCI-H23 lung
[18] = system: SK-MEL-2 melanoma
[19] = system: MCF7 breast
[20] = system: HT29 colon
[21] = system: A498 renal
[22] = system: UACC-257 melanoma
[23] = system: MDA-MB-435
[24] = system: SK-OV-3 ovarian
[25] = system: SK-MEL-5 melanoma
[26] = system: HS 578T breast
[27] = system: MDA-N
[28] = system: RXF 393 renal
[29] = system: HCT-15 colon
[30] = system: MALME-3M melanoma
[31] = system: A549 NSCLC
[32] = system: SR leukemia
[33] = system: SK-MEL-28 melanoma
[34] = system: EKVX NSCLC
[35] = system: U251 CNS
[36] = system: BT-549 breast
[37] = system: HOP-62 NSCLC
[38] = system: NCI-H226 lung
[39] = system: OVCAR-8 ovarian
[40] = system: IGROV1 ovarian
[41] = system: K-562 leukemia
[42] = system: T-47D breast
[43] = system: TK-10 renal
[44] = system: OVCAR-4 ovarian
[45] = system: SNB-75 CNS
[46] = system: CAKI-1 renal
[47] = system: HOP-92 NSCLC
[48] = system: UACC-62 melanoma
[49] = system: PC-3 prostate
[50] = system: SN12C renal
[51] = system: RPMI-8226 leukemia
[52] = system: CCRF-CEM leukemia
[53] = system: NCI-H522 lung
[54] = system: 786-0 renal
[55] = system: ACHN renal
[56] = system: OVCAR-3 ovarian
[57] = system: KM12 colon
[58] = system: M14 melanoma
[59] = system: HL-60(TB) leukemia

O=C(O)CCc1nc2ccccc2[nH]1
> 100 µM: TGI [1] | TGI [2] | TGI [3] | TGI [4] | TGI [5] | TGI [6] | TGI [7] | TGI [8] | TGI [9] | TGI [10] | TGI [11] | TGI [12] | TGI [13] | TGI [14] | TGI [15] | TGI [16] | TGI [17] | TGI [18] | TGI [19] | TGI [20] | TGI [21] | TGI [22] | TGI [23] | TGI [24] | TGI [25] | TGI [26] | TGI [27] | TGI [28] | TGI [29] | TGI [30] | TGI [31] | TGI [32] | TGI [33] | TGI [34] | TGI [35] | TGI [36] | TGI [37] | TGI [38] | TGI [39] | TGI [40] | TGI [41] | TGI [42] | TGI [43] | TGI [44] | TGI [45] | TGI [46] | TGI [47] | TGI [48] | TGI [49] | TGI [50] | TGI [51] | TGI [52] | TGI [53] | TGI [54] | TGI [55] | TGI [56] | TGI [57] | TGI [58] | TGI [59]

NC(=O)c1cccc(N=c2oc3ccc(Br)cc3cc2-c2nc3ccccc3[nH]2)c1
39.4 µM: TGI [23]
23.6 µM: TGI [45]
25 µM: TGI [7]
29.2 µM: TGI [42] | TGI [49]
77.4 µM: TGI [53]
43.5 µM: TGI [28]
38.5 µM: TGI [18]
30.2 µM: TGI [6]
33.6 µM: TGI [40]
34.3 µM: TGI [46]
28.5 µM: TGI [8] | TGI [48]
37.5 µM: TGI [4]
28.2 µM: TGI [39]
53.4 µM: TGI [51]
31.4 µM: TGI [54]
33.3 µM: TGI [13]
34.4 µM: TGI [50]
47.7 µM: TGI [10]
49 µM: TGI [57]
43.6 µM: TGI [3] | TGI [9]
20.8 µM: TGI [14]
51.3 µM: TGI [59]
35.9 µM: TGI [12]
43.4 µM: TGI [2] | TGI [22]
> 100 µM: TGI [32] | TGI [33]
31.9 µM: TGI [19]
34.9 µM: TGI [15]
43 µM: TGI [30]
30.4 µM: TGI [36]
14.4 µM: TGI [16]
96.1 µM: TGI [41]
38.1 µM: TGI [27]
34.7 µM: TGI [20]
36.4 µM: TGI [47]
26.4 µM: TGI [31]
30.7 µM: TGI [43]
32.6 µM: TGI [34]
32.1 µM: TGI [29] | TGI [56]
31 µM: TGI [35]
30.8 µM: TGI [11]
17.3 µM: TGI [52]
74.5 µM: TGI [26]
32.2 µM: TGI [55]
11.3 µM: TGI [25]
32.3 µM: TGI [58]
47.5 µM: TGI [44]
35.8 µM: TGI [1] | TGI [21]
33.8 µM: TGI [37]
32.7 µM: TGI [17] | TGI [24]
28.9 µM: TGI [5]
24.2 µM: TGI [38]

COC(=O)C1=COC(C)C2CN3CCc4c([nH]c5cc(OC)c(OC)cc45)C3CC12 (configuration not stated)
66.6 µM and 65.9 µM: TGI [59]
> 100 µM and 94.5 µM: TGI [20]
inactive: GI50 [3] 67.1 µM and 22.4 µM | GI50 [10] > 100 µM and 39.1 µM | GI50 [12] 15.1 µM and 64.2 µM | GI50 [13] > 100 µM and 43.6 µM | GI50 [19] > 100 µM and 36.4 µM | GI50 [33] > 100 µM and 34.2 µM | GI50 [35] > 100 µM and 47.4 µM | GI50 [36] > 100 µM and 18.5 µM | GI50 [39] > 100 µM and 45.1 µM | GI50 [40] > 100 µM and 45.7 µM | GI50 [44] 89.4 µM and 34.3 µM | GI50 [45] 38.7 µM and > 100 µM | GI50 [52] 41.7 µM and 13.6 µM | GI50 [53] > 100 µM and 22 µM | GI50 [57] > 100 µM and 37.2 µM
> 100 µM: TGI [3] | TGI [4] | TGI [5] | TGI [6] | TGI [7] | TGI [8] | TGI [9] | TGI [10] | TGI [11] | TGI [12] | TGI [13] | TGI [14] | TGI [15] | TGI [16] | TGI [17] | TGI [18] | TGI [19] | TGI [21] | TGI [22] | TGI [23] | TGI [24] | TGI [25] | TGI [26] | TGI [27] | TGI [29] | TGI [30] | TGI [31] | TGI [32] | TGI [33] | TGI [34] | TGI [35] | TGI [37] | TGI [38] | TGI [39] | TGI [40] | TGI [41] | TGI [42] | TGI [43] | TGI [44] | TGI [45] | TGI [46] | TGI [47] | TGI [48] | TGI [49] | TGI [50] | TGI [51] | TGI [52] | TGI [54] | TGI [55] | TGI [56] | TGI [57] | TGI [58]
> 100 µM and 86.6 µM: TGI [1]
> 100 µM and 57.2 µM: TGI [53]
85.8 µM: TGI [28]
> 100 µM and 79.1 µM: TGI [2]
> 100 µM and 61.6 µM: TGI [36]
